One data set has as its target T1, CYP2D6 (Homo sapiens, UniProt P10635).
T1 construct: Pooled human liver microsomes (HLM, LOT 32556) were purchased from BD Gentest Corporation; tissue BD Gentest Corporation LOT 32556; host or cells: pooled human liver microsomes
Description: CYP inhibition in human liver microsomes, substrate cocktail, LC-MS/MS (dextromethorphan). Format: in vitro ADME. Particulars: metabolite dextrorphan, read-out: IC50 for HLM, CYP2D6. From the text:
(§1) Positive controls (furafyline for CYP1A2, montelukast for CYP2C8, sulfaphenazole for CYP2C9, S-(+)-N-3-benzylnirvanol for CYP2C19, quinidine for CYP2D6, ketoconazole for CYP3A4) and specific substrates (phenacetin for CYP1A2, paclitaxel for CYP2C8, diclofenac for CYP2C9, S-mephenytoin for CYP2C19, dextromethorphan for CYP2D6, midazolam for CYP3A4) are consistent with our previous papers. The substrates were used at concentrations approximately equal to their respective Michaelis-Menten constant (Km) values: 10 μM phenacetin, 5 μM paclitaxel, 5 μM diclofenac, 200 μM S-mephenytoin, 5 μM dextromethorphan, and 2 μM midazolam. NADP^+ was added after a 15 min preincubation of all other components at 37 °C. After a given incubation time (30 min), the reactions were terminated by addition of 60 μL ice-cold acetonitrile containing gemfibrozil and buspirone as internal standards. Incubation samples were stored at −80 °C until used in liquid chromatography-tandem mass spectrometry (LC-MS/MS) analysis. The mixture was centrifuged at 3,500 rpm for 5 min. The supernatant was mixed with equal volume of a 1:1 mixture of methanol and water and 20 μL of the final mixture was used for LC-MS/ MS analysis. […]
(§2) The CYP inhibition potential were evaluated by measuring the formation of one or more metabolites of the test substrates. […]
(Liver microsomes are vesicles of endoplasmic reticulum, rich in cytochrome P450 enzymes.)

In the next data set the target is T2, CYP2C11 (Rattus norvegicus, UniProt P08683).
T2 sequence (P08683 1-500): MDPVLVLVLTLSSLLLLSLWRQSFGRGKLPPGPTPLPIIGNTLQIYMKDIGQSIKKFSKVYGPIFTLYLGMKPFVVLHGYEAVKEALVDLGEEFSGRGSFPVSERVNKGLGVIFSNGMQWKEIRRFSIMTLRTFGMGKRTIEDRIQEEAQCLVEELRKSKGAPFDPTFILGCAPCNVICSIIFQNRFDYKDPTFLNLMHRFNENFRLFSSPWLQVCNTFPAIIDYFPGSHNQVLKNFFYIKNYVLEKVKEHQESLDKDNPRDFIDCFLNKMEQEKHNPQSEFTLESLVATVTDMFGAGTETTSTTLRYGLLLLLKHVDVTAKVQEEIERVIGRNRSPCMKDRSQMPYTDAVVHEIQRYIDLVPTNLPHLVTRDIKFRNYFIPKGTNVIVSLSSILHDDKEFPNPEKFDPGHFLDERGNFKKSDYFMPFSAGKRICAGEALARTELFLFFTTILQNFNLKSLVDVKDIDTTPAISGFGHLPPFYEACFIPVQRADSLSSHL
The data set is described as follows: CYP inhibition in rat liver microsomes, substrate cocktail, LC-MS/MS (diclofenac). Format: in vitro ADME. The note with it: pH 7.4, probe diclofenac 5 μM, read-out: IC50 for RLM, CYP2C11 (table row CYP2C9).
Source text: as §1, §2

The next data set addresses T3, P-gp (Homo sapiens, UniProt P08183).
T3 construct: host or cells: WM-266-4 human melanoma cells
The data set is described as follows: P-gp inhibition, calcein-AM fluorometry assay in WM-266-4 cells. Type of data set: cell-based. Particulars: probe calcein-AM (1 μM), all six concentrations 4.1~1,000 μM, response relative to verapamil at 100 μM. How it is done:
One vial of WM-266-4 cells was thawed and cultured in a 15 cm culture dish overnight. Cells were split the next day and transferred onto a clear bottom 96-well plate with 5.0 × 10^4 cells per well. […] Verapamil was used as a positive control at a concentration of 100 μM and 1% DMSO was used as a negative control. After 30 min of incubation time, calcein-AM diluted with 50 μL culture media without serum was added to a concentration of 1 μM and the sample was incubated for an additional 30 min. The plates were placed in the Flexstation II (Molecular Devices) and fluorescence was measured at excitation and emission wavelengths of 494 and 517 nm, respectively.
The P-gp inhibitor verapamil was used as positive control at a concentration of 100 μM. The experiment was considered valid if an increase in fluorescence greater than 5-fold was observed. For P-gp inhibition, a compound with a response less than 25% of verapamil at 100 μM is normally reported as “negative” at the tested concentration. The percent response value was used to determine and report the P-gp interaction at the tested concentration. A response equal to or greater than 25% of verapamil at 100 μM was considered to be “positive” at the tested concentration.

The test system of another data set is UGT2B7. The arrangement: dose or concentration left out as unconfirmed. The note with it: cited from earlier work.
The next data set relates to rat CYP1A2. The note with it: cited from earlier work.

Structures are written as SMILES.

T1 sequence (P10635 whole entry): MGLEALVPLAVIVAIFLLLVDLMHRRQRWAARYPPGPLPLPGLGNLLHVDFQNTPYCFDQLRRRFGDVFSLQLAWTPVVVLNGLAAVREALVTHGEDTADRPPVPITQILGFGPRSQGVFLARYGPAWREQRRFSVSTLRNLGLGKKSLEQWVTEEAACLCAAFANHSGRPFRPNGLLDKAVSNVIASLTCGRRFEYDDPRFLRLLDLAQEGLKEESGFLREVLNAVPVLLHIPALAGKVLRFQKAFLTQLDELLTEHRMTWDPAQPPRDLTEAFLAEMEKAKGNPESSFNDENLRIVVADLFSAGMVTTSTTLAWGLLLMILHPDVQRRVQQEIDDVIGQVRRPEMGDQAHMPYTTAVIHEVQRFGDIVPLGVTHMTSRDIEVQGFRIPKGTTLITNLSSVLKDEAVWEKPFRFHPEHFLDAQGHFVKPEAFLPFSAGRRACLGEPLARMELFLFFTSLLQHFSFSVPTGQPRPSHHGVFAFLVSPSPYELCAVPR
T3 sequence (P08183 whole entry): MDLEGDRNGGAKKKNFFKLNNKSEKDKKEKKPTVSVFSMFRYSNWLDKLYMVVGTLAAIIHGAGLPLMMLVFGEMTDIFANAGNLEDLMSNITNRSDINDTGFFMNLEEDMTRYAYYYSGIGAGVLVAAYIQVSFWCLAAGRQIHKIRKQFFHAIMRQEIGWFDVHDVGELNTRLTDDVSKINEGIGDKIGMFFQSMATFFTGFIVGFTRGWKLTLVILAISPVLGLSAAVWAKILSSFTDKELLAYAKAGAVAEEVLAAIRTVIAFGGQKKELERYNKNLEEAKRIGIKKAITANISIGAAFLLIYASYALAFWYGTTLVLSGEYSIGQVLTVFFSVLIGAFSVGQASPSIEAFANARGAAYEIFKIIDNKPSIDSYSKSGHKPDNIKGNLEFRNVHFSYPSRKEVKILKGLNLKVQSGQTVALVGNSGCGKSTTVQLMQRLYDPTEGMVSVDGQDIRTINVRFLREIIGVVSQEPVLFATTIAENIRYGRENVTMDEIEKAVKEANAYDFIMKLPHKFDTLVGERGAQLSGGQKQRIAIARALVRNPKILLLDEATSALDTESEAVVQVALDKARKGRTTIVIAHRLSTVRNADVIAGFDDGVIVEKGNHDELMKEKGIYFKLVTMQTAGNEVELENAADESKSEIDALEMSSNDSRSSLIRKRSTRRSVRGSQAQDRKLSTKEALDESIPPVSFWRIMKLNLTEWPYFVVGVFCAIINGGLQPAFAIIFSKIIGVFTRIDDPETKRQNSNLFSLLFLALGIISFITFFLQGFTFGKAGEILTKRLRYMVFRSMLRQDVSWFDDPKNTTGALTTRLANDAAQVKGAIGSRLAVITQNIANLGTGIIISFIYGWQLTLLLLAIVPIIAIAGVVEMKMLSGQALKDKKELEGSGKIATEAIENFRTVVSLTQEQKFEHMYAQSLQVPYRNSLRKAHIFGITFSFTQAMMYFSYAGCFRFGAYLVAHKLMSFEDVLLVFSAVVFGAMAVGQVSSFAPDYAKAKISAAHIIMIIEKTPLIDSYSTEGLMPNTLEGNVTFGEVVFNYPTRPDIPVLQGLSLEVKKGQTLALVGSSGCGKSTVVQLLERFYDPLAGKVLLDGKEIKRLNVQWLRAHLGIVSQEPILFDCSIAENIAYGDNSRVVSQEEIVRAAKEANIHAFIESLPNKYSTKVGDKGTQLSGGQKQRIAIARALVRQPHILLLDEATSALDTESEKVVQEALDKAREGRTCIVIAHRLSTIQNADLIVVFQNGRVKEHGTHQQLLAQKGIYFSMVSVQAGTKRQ

As a reminder, the IC50 is the concentration that inhibits the measured activity by half. In general, inhibition refers to the change of the read-out against control, counted positive when it falls. Broadly, the Ki is the equilibrium dissociation constant of an inhibitor or competing ligand from its target. Regarding `O=C(O)[C@H]1O[C@@H](Oc2cc3oc(-c4ccc(O)cc4)cc(=O)c3c(O)c2O)[C@H](O)[C@@H](O)[C@@H]1O` [scutellarin, Scutellarin], the IC50 on CYP2D6 is over 100 µM; in the data set on rat CYP1A2 (in vitro experiments), 108.2 ± 0.657 µM. Besides, at CYP2C11, the IC50 at 30 min was over 100 µM. For the same compound, the inhibition at 60 min on P-gp is under 25%. In addition, the “inhibition towards the activity of UGT2B7” value in the data set with UGT2B7 is reported as 73.8%. The Ki with rat CYP1A2 (weak mixed-type inhibition, read-out: Ki against the activity of CYP1A2) was 95.2 µM.

Values taken from article PMC6271944 (Molecules, 2014).
